Calls of active or inactive are those of the source. No cut-off for these calls is given here.
Assays:
[1] = biological target: T1, beta-catenin-B-cell lymphoma 9 protein complex (Homo sapiens, UniProt P35222); experiment: Inhibition of beta-catenin (unknown origin) to BCL9-FAM (unknown origin) protein-protein interaction preincubated for 2 hrs followed by BCL9 addition and measured after 2 hrs by fluorescence polarization assay; type: protein-complex assay
T1 sequence (P35222 whole entry): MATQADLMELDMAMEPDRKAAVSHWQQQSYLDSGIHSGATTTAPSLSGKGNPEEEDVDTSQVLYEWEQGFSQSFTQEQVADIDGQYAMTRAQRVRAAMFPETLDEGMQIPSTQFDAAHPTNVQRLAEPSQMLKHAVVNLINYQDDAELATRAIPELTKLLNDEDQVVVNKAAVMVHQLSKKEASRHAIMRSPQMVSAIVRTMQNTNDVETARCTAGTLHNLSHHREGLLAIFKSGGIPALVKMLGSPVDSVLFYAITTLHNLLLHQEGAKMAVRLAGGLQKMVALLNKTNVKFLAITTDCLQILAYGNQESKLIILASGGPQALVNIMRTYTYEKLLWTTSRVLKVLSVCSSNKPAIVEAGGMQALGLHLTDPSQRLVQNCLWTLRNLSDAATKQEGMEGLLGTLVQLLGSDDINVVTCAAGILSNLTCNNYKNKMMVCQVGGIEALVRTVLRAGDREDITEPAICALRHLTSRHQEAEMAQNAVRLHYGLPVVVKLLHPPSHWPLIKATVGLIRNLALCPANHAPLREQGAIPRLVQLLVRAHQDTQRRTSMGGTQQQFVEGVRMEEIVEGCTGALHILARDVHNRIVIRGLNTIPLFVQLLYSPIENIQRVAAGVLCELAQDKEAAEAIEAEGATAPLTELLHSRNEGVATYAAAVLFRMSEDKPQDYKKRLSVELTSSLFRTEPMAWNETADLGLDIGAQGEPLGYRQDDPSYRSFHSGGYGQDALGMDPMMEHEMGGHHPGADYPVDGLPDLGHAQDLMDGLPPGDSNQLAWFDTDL
T1 sequence (O00512 whole entry): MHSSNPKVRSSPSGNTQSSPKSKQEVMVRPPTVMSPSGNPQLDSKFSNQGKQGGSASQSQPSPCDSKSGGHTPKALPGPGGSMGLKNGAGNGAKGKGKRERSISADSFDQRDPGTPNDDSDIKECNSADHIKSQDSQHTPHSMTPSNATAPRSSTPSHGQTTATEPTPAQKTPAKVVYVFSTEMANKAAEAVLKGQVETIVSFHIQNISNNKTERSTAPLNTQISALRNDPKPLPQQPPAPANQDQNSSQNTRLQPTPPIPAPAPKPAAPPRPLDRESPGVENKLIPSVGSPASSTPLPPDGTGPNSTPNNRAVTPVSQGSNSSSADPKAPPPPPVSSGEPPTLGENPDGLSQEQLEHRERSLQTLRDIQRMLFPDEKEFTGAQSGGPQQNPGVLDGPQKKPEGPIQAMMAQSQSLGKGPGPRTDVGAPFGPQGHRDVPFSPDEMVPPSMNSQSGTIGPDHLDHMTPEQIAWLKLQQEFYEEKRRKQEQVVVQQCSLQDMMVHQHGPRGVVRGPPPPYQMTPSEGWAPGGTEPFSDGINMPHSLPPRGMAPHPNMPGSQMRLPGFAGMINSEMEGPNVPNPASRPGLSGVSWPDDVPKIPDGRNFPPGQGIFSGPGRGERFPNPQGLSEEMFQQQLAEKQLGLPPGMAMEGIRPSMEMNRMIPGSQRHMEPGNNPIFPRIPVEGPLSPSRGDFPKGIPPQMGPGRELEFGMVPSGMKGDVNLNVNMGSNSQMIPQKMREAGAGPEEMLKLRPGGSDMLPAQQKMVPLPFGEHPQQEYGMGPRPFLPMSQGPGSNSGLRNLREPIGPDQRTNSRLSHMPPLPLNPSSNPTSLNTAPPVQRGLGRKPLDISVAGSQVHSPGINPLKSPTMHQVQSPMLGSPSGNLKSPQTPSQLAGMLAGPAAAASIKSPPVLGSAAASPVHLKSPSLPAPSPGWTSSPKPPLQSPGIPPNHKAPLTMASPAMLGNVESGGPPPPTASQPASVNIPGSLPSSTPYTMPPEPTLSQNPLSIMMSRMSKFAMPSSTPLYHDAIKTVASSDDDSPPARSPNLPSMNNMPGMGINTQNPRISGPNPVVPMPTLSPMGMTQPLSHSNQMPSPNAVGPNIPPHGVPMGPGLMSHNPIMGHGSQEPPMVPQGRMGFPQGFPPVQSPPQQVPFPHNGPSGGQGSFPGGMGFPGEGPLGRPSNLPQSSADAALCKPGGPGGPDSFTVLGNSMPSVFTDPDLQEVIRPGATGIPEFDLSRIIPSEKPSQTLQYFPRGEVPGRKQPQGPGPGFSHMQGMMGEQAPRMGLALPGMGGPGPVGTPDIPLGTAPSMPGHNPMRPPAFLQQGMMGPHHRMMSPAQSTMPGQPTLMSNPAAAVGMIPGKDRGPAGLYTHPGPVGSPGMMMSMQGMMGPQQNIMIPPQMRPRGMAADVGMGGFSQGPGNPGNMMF

[2] = Inhibition of Wnt/beta-catenin signaling in mouse CT26 cells assessed as reduction in Axin2 expression incubated for 24 hrs by qPCR analysis; conditions: CT26, 24 h
CT26 [3] = experiment: Antiproliferative activity against mouse CT26 cells assessed as reduction in cell viability incubated for 48 hrs by CCK-8 assay; conditions: CT26, 48 h
CT26 [4] = experiment: Antitumor activity against mouse CT26 cells implanted in BALB/c mouse assessed as tumor growth inhibition at 30 mg/kg, ip administered once daily and measured on day 14; type: functional; conditions: CT26, 336 h, time 14 day, read-out: TGI
[5] = Inhibition of Wnt/beta-catenin signaling in human HCT116 cells incubated for 24 hrs by TCF/LEF reporter assay; conditions: HCT-116, 24 h
[6] = Inhibition of Wnt/beta-catenin signaling in human HCT-116 cells assessed as reduction in Axin2 expression incubated for 24 hrs by qPCR analysis; conditions: HCT-116, 24 h
CT26 [7] = experiment: Inhibition of Wnt/beta-catenin signaling in mouse CT26 cells assessed as reduction in Axin2 expression incubated for 24 hrs by Western blot analysis; type: cell-based; conditions: dose 5-20 µM
[8] = Inhibition of Wnt/beta-catenin signaling in BCL9 knockdown mouse CT26 cells assessed as reduction in Axin2 expression incubated for 24 hrs by qPCR analysis; conditions: CT26, 24 h
HCT-116 = experiment: Antiproliferative activity against human HCT-116 cells assessed as reduction in cell viability incubated for 48 hrs by CCK8 assay; conditions: HCT-116, 48 h
[9] = Toxicity in BALB/c mouse assessed as body weight loss at 30 mg/kg, ip administered once daily measured after 14 days; type: organism-based; conditions: in vivo, 336 h, time 14 day
[10] = Drug concentration in human HCT-116 cells assessed as retention ratio at 2 uM incubated for 24 hrs by HPLC-MS analysis; type: ADME, cell-based; conditions: hct-116, 24 h
RKO = experiment: Antiproliferative activity against human RKO cells assessed as reduction in cell viability incubated for 48 hrs by CCK8 assay
CT26 [11] = experiment: Induction of apoptosis in mouse CT26 cells assessed as late apoptosis at 5 to 40 uM incubated for 24 hrs by annexin V and PI staining based flow cytometry analysis; type: functional, cell-based; conditions: dose 5-40 µM
CT26 [12] = experiment: Antitumor activity against mouse CT26 cells implanted in BALB/c mouse assessed as increase in granzyme B expression at 30 mg/kg, ip administered once daily and measured on day 14 by qPCR analysis; type: functional, organism-based; conditions: time 14.0 day
CT26 [13] = experiment: Antitumor activity against mouse CT26 cells implanted in BALB/c mouse assessed as induction of immune microenvironment at 30 mg/kg, ip administered once daily and measured on day 14 by qPCR analysis; type: functional, organism-based; conditions: time 14.0 day
HEK293 = experiment: Antiproliferative activity against HEK293 cells assessed as reduction in cell viability incubated for 48 hrs by CCK8 assay; conditions: Homo sapiens, HEK293, 48 h
[14] = Induction of immune microenvironment in BALB/c mouse spleen assessed as increase in granzyme B at 5 to 10 uM after 24 hrs by flow cytometry analysis (reference value: 16.7 %); type: functional; conditions: dose 5-10 µM
CT26 [15] = experiment: Antitumor activity against mouse CT26 cells implanted in BALB/c mouse assessed as downregulation of interleukin-10 gene expression at 30 mg/kg, ip administered once daily and measured on day 14 by qPCR analysis; type: functional, organism-based; conditions: time 14.0 day
CT26 [16] = conditions: Mus musculus, dose 30.0 mg/kg, route ip, time 14.0 day
Description: In vivo inhibition of Wnt/beta-catenin signaling in mouse CT26 cells implanted in BALB/c mouse assessed as reduction in Axin2 expression at 30 mg/kg, ip administered once daily and measured on day 14 by qPCR analysis

CT26 [17] = experiment: Induction of apoptosis in mouse CT26 cells assessed as early apoptosis at 5 to 40 uM incubated for 24 hrs by annexin V and PI staining based flow cytometry analysis; type: functional, cell-based; conditions: dose 5-40 µM
[18] = Drug concentration in human HCT-116 cells at 2 uM incubated for 24 hrs by HPLC-MS analysis; type: ADME, cell-based; conditions: hct-116, 24 h

In the case of `O=c1c(O)c(-c2ccc(O)c(OCCN3CCOCC3)c2)oc2cc(O)cc(O)c12`, the IC50 [1] is reported as 30.2 µM, the IC50 [2] is reported as 38.4 µM and the IC50 (CT26 [3]) is reported as 9.96 µM.

`O=c1c(O)c(-c2ccc(O)c(OCCN3CCCCCC3)c2)oc2cc(O)cc(O)c12` showed an IC50 [1] of 37.4 µM, an IC50 [2] of 13.9 µM and an IC50 (CT26 [3]) of 7.04 µM.

Compound `COc1cc(OCCCN2CCOCC2)c2c(=O)c(O)c(-c3ccc(O)c(O)c3)oc2c1` has an IC50 [1] of 6.09 µM.

Work on `O=c1c(O)c(-c2ccc(O)c(O)c2)oc2cc(O)cc(O)c12` [QUERCETIN] yielded an inhibition in vivo at 30 mg/kg (CT26 [4]) of 69.4%, an IC50 [5] of 4.71 µM and an IC50 [6] of 3.57 µM. The inhibition (CT26 [7]) was “Dose-Dependent Effect”, the IC50 [8] was 23.5 µM and the IC50 (HCT-116) was 10.4 µM. The Activity [9] was “Non-Toxic”, the IC50 [2] was 7.7 µM and the IC50 (CT26 [3]) was 14.4 µM.

With `O=c1c(O)c(-c2ccc(O)c(O)c2)oc2c(-c3ccc(O)cc3)c(O)cc(O)c12` the IC50 [1] was 4.46 µM.

`O=c1c(O)c(-c2ccc(O)c(O)c2)oc2cc(OCCCN3CCOCC3)cc(O)c12` showed an IC50 [1] of 12.3 µM.

`O=c1c(O)c(-c2ccc(O)c(O)c2)oc2c(-c3ccccc3)c(O)cc(O)c12` gave an IC50 [1] of 18.7 µM.

With `CN1CCN(CCCOc2cc(-c3oc4cc(O)cc(O)c4c(=O)c3O)ccc2O)CC1` the Drug uptake [10] was 31.31%, the IC50 (RKO) was 26.7 µM and the Activity (CT26 [11]) was “Active”. The Activity (CT26 [12]) was “Active”, the inhibition in vivo at 30 mg/kg (CT26 [4]) was 81.4% and the Activity (CT26 [13]) was “Active”. It also gave an IC50 [5] of 15.2 µM, an IC50 (HEK293) of 17.7 µM and an IC50 [6] of 9.71 µM. For the same compound, the inhibition (CT26 [7]) was “Dose-Dependent Effect”, the IC50 [8] was 27.9 µM and the Activity [14] was 31.1%. For the same compound, the IC50 (HCT-116) was 4.4 µM, the Activity [9] was “Non-Toxic” and the Activity (CT26 [15]) was “Active”. For the same compound, the inhibition (CT26 [16]) was “Active”, the Activity (CT26 [17]) was “Active” and the Drug uptake [18] was 0.63 µM. For the same compound, the IC50 [2] was 2.81 µM and the IC50 (CT26 [3]) was 3.21 µM.

With `O=c1c(O)c(-c2ccc(O)c(OCCCN3CCCCC3)c2)oc2cc(O)cc(O)c12` the IC50 [1] was 18.6 µM, the IC50 [2] was 29.7 µM and the IC50 (CT26 [3]) was 7.18 µM.

Work on `O=c1c(O)c(-c2ccc(O)c(OCCN3CCCC3)c2)oc2cc(O)cc(O)c12` yielded an IC50 [1] of 56.8 µM, an IC50 [2] of 17.6 µM and an IC50 (CT26 [3]) of 8.2 µM.

Source: ChEMBL document CHEMBL5346872 (Eur J Med Chem, 2023)
